Source: patent US9988348B1, “Synthesis and antimicrobial use of a trithiocarbonate derivative” (KING SAUD UNIVERSITY, priority 2017, dated 2018)
Marks after values point to notes of the source that are not given here.

Assays:
[1] = test system: Cryptococcus neoformans Wild strain; assay: disk diffusion assay, inhibition zone; type: cell-based; details: Cryptococcus neoformans; C. neoformasn; 10 μg/disk; read-out: Inhibition zone diameter of standard antimicrobial agents
Method: (§1) To evaluate antimicrobial activity of the compound 4, synthesized in our laboratory as novel anti-bacterial and anti-fungal agents, the inhibition zone diameter (mm) and the minimal inhibitory concentration were determined according to (Andrews 2001; Hudzicki 2009). The test carried out on several clinical microorganisms included Gram positive bacteria (Staphylococcus aureus ATCC and Streptococcus mutans ATCC 35668), Gram negative bacteria (Escherichia coli ATCC 25922, Salmonella typhimurium ATCC 14028 and Neisseria meningitides ATCC 1302); yeasts (Candid albicans ATCC 60193, Cryptococcus neoformans Wild strain and Candida parapsilosus ATCC 22019) and molds (Aspergillus fumigatus AUMC 8794, Penicillum chrysogenum AUMC 9476 and Fusarium sp.)
(§2) The clinical microorganisms were cultivated at least three times on suitable culture medium and incubating conditions before susceptibility test. The concentration of microbial inoculation suspensions in sterile sodium chloride solution (0.89%) were adjusted to 0.65 at 620 nm by spectrophotometer. […]
(§3) After that, the disks were dried at 25° C. under sterile conditions by safety biological cabinet. A Mueller-Hinton agar (MHA) (Scharlau Microbiogy, Spain) and a potato dextrose agar (PDA) (Scharlau, Spain) were used to perform antibacterial and antifungal test respectively. The media were prepared according to manufacturer's guidelines. To prepare one liter of MHA and one liter of PDA, 21 grams of MHA and 39 grams of PDA were dissolved in one liter of sterile distilled water, followed by sterilization at 121° C. for 15 minutes by an autoclave (HL-321, Taiwan). The sterilized media were poured in sterile plastic Petri dishes at 50° C. The plates were allowed to let the medium solidify at room temperature. 0.1 ml of microbial inoculation suspensions were spread on dried surface of medium and were kept at 25° C. for 5-10 minutes. The compound 4 and standard antimicrobial drugs discs (Table 1) were dispensed on the surface of inoculated media. The tested bacteria and fungi were incubated at 37±1° C. for 19-22 hours and at 25±1 for 48-72 hours respectively. After the incubation, the diameter of inhibition zone (millimeter) resulting from the biological activity of compound were recorded.

[2] = test system: Penicillum chrysogenum AUMC 9476; assay: disk diffusion assay, inhibition zone; type: cell-based; details: P. chrysoginum; 10 μg/disk; read-out: Inhibition zone diameter of standard antimicrobial agents
Method: as §1, §2, §3

[3] = test system: Candid albicans ATCC 60193; assay: disk diffusion assay, inhibition zone; type: cell-based; details: Candida albicans, ATCC60193; C. albicans; 10 μg/disk; read-out: Inhibition zone diameter of standard antimicrobial agents
Method: as §1, §2, §3

[4] = test system: Aspergillus fumigatus AUMC 8794; assay: disk diffusion assay, inhibition zone; type: cell-based; details: Aspergillus fumigatus, AUMC8794; A. fumigatus; 10 μg/disk; read-out: Inhibition zone diameter of standard antimicrobial agents
Method: as §1, §2, §3

[5] = test system: Candida parapsilosus ATCC 22019; assay: disk diffusion assay, inhibition zone; type: cell-based; details: C. parasilosus
Method: as §1, §2, §3

[6] = test system: Fusarium sp.; assay: disk diffusion assay, inhibition zone; type: cell-based; details: Fusarium sp.; 10 μg/disk; read-out: Inhibition zone diameter of standard antimicrobial agents
Method: as §1, §2, §3

[7] = test system: C. albicans; assay: in vivo antifungal activity, candidemia in mice infected with C. albicans; parameters: species or system Albino male mice; details: C. albicans-infected mice; for daily body weight / % change in daily body weight / Food consumption / Mortality / Water consumption: oral 12 mg/kg then 6 mg/ml
Method: To confirm that the water soluble form of the compound 4 has a biological activity as a novel antimicrobial agent, effectiveness of the compound 4 as a drug to treat candidemia in mice was investigated. The experiment was performed in Experimental Animal Care Center (EACC), College of Pharmacy, King Saud University, Riyadh. Fifty Albino male mice, weighing nearly 30±2 gram were used. The mice were arranged in five groups, each including ten mice caged together, given water, and feed ad libitum. Negative control and control group were infected intravenously with 0.2 ml of C. albicans suspension (10^6 CFU/mouse) and 0.2 ml of sterile normal saline (0.89% Nacl) respectively. The group treated with standard drug (fluconazole) was infected intravenously with 0.2 ml of C. albicans suspension (10^6 CFU/mouse) and treated (orally) by 12 mg/kg of fluconazole (loading dose) on the first day followed by 6 mg/ml for 2 weeks. The group treated with the investigated compound 4 was infected intravenously with C. albicans at 10^6 CFU/mouse (0.2 ml) and treated (orally) by 12 mg/kg of the compound 4 (loading dose) on the first day followed by 6 mg/ml for 2 weeks. To study the biological effects of compound 4, a fifth group was designed. In this group the mice were treated intravenously (I. V) with 12 mg/kg of the compound 4 on the first day followed by 6 mg/ml for 2 weeks. All doses of the standard drug and compound 4 were given twice daily.
The effectiveness of the previous treatments on some biological concepts were evaluated. The biological parameters included daily body weight (gm), mortality (%), food consumption (g/day/mouse), water consumption (ml/day/mouse), serum glutamic oxaloacetic transaminase [SGOT(AST) (U/L)], serum glutamic-pyruvic transaminase [SGPT(ALT)(U/L)], alkaline phosphatase (U/L), gamma-glutamyl transferase (GGT) (U/L), bilirubin (mg/dl)], cholesterol (mg/dl), triglycerides (mg/dl), high-density lipoprotein (HDL) (mg/dl), very-low-density lipoprotein (VLDL) (mg/dl), low-density lipoprotein (LDL) (mg/dl), lactate dehydrogenase (LDH) (U/L), glucose (mg/dl), total protein (mg/dl), malondialdehyde (MDA) (nmol/g), nonprotein sulfyhydryl (NP-SH) (nmol/g). Addition hematologic constituents including white blood cells (WBC) (cell/mm^3), red blood cells (RBC) (10^6/mm^3), hemoglobin (HGB) (g/dL), HCT, Platelets (PLT) (10^3/mm^3), mean corpuscular volume (MCV) (fL), mean corpuscular hemoglobin (MCH) (pg), mean corpuscular hemoglobin concentration (MCHC) (g/dL), neutrophils (%), lymphocytes (%), eosinophils (%) and monocytes (%)] were evaluated (Classics Lowry et al. 1951; Utley et al. 1967; Sedlak et al. 1968). SGOT (AST), SGPT (ALT), ALP, GGT, bilirubin LDH and total protein were estimated using Reflotron Plus Analyzer and Roche kits (Roche Diagnostics GmbH, Mannheim Germany) and United diagnostic kits assay. Hematological tests were performed by Mindray BC-2800VET auto Hematology Analyzer.

[8] = blood, oral 12 mg/kg then 6 mg/ml for 2 weeks
[9] = liver tissue, oral 12 mg/kg then 6 mg/ml for 2 weeks
[10] = serum, oral 12 mg/kg then 6 mg/ml for 2 weeks

Clc1ccccc1C(c1ccccc1)(c1ccccc1)n1ccnc1 [Canesten]
zone of inhibition at 10 µg/disc [1]: 25 mm
zone of inhibition at 10 µg/disc [2]: 30 mm
zone of inhibition at 10 µg/disc [3]: 26 mm
zone of inhibition at 10 µg/disc [4]: 23 mm
susceptibility of the strain to the standard drug, in words [5]: resistant
zone of inhibition at 10 µg/disc ([5]; Candida, ATCC22019, 10 μg/disk, read-out: Inhibition zone diameter of standard antimicrobial agents): 0 mm
zone of inhibition at 10 µg/disc [6]: 15 mm

OC(Cn1cncn1)(Cn1cncn1)c1ccc(F)cc1F [fluconazole, reference compound]
daily body weight ([7]; day 0): 19.70 ± 0.47 gm
% change in daily body weight ([7]; day 1): 0.50%
Food consumption ([7]; day 1): 4.3 g/day/mice
Mortality ([7]; day 1): 0%
Water consumption ([7]; day 1): 4.8 g/day/mice
daily body weight ([7]; day 1): 19.80 ± 0.35 gm
% change in daily body weight ([7]; day 2): 10.65%
Food consumption ([7]; day 2): 4.3 g/day/mice
Mortality ([7]; day 2): 0%
Water consumption ([7]; day 2): 4.8 g/day/mice
daily body weight ([7]; day 2): 21.80 ± 0.24 gm
% change in daily body weight ([7]; day 3): 13.19%
Food consumption ([7]; day 3): 4.5 g/day/mice
Mortality ([7]; day 3): 0%
Water consumption ([7]; day 3): 4.9 g/day/mice
daily body weight ([7]; day 3): 22.30 ± 0.21 gm
% change in daily body weight ([7]; day 4): 13.70%
Food consumption ([7]; day 4): 4.6 g/day/mice
Mortality ([7]; day 4): 0%
Water consumption ([7]; day 4): 5.0 g/day/mice
daily body weight ([7]; day 4): 22.40 ± 0.22 gm
% change in daily body weight ([7]; day 5): 21.31%
Food consumption ([7]; day 5): 4.6 g/day/mice
Mortality ([7]; day 5): 0%
Water consumption ([7]; day 5): 5.2 g/day/mice
daily body weight ([7]; day 5): 23.90 ± 0.31 gm
% change in daily body weight ([7]; day 6): 21.82%
Food consumption ([7]; day 6): 4.7 g/day/mice
Mortality ([7]; day 6): 0%
Water consumption ([7]; day 6): 5.2 g/day/mice
daily body weight ([7]; day 6): 24.00 ± 0.29 gm
% change in daily body weight ([7]; day 7): 22.95%
Food consumption ([7]; day 7): 5.0 g/day/mice
Mortality ([7]; day 7): 10%
Water consumption ([7]; day 7): 5.1 g/day/mice
daily body weight ([7]; day 7): 24.22 ± 0.22 gm
% change in daily body weight ([7]; day 8): 24.08%
Food consumption ([7]; day 8): 5.1 g/day/mice
Mortality ([7]; day 8): 10%
Water consumption ([7]; day 8): 5.2 g/day/mice
daily body weight ([7]; day 8): 24.44 ± 0.24 gm
% change in daily body weight ([7]; day 9): 24.36%
Food consumption ([7]; day 9): 4.7 g/day/mice
Mortality ([7]; day 9): 20%
Water consumption ([7]; day 9): 5.2 g/day/mice
daily body weight ([7]; day 9): 24.50 ± 0.18 gm
% change in daily body weight ([7]; day 10): 26.29%
Food consumption ([7]; day 10): 5.00 g/day/mice
Mortality ([7]; day 10): 20%
Water consumption ([7]; day 10): 5.3 g/day/mice
daily body weight ([7]; day 10): 24.87 ± 0.29 gm
% change in daily body weight ([7]; day 11): 28.17%
Food consumption ([7]; day 11): 5.1 g/day/mice
Mortality ([7]; day 11): 20%
Water consumption ([7]; day 11): 5.3 g/day/mice
daily body weight ([7]; day 11): 25.25 ± 0.25 gm
% change in daily body weight ([7]; day 12): −28.80%
Food consumption ([7]; day 12): 5.62 g/day/mice
Mortality ([7]; day 12): 20%
Water consumption ([7]; day 12): 5.5 g/day/mice
daily body weight ([7]; day 12): 25.37 ± 0.26 gm
% change in daily body weight ([7]; day 13): 31.97%
Food consumption ([7]; day 13): 5.2 g/day/mice
Mortality ([7]; day 13): 30%
Water consumption ([7]; day 13): 5.4 g/day/mice
daily body weight ([7]; day 13): 26.00 ± 0.30 gm
% change in daily body weight ([7]; day 14): 33.43%
Food consumption ([7]; day 14): 5.2 g/day/mice
Mortality ([7]; day 14): 30%
Water consumption ([7]; day 14): 5.4 g/day/mice
daily body weight ([7]; day 14): 26.28 ± 0.28 gm
% change in daily body weight ([7]; day 15): 35.60%
Food consumption ([7]; day 15): 5.5 g/day/mice
Mortality ([7]; day 15): 30%
Water consumption ([7]; day 15): 5.7 g/day/mice
daily body weight ([7]; day 15): 26.71 ± 0.28 gm
Eosinophils Mean ± SE [7, 8]: 1.61 ± 0.10%
HCT Mean ± SE [7, 8]: 35.05 ± 1.5
HGB Mean ± SE [7, 8]: 11.1 ± 0.18 g/dL
Lymphocytes Mean ± SE [7, 8]: 6.2 ± 0.1%
MCH Mean ± SE [7, 8]: 28.2 ± 0.7 pg
MCHC Mean ± SE [7, 8]: 24.3 ± 0.5 g/dL
MCV Mean ± SE [7, 8]: 72.04 ± 2.6 fL
Monocytes Mean ± SE [7, 8]: 1.06 ± 0.02%
Neutrophils Mean ± SE [7, 8]: 25.9 ± 0.5%
PLT Mean ± SE [7, 8]: 563.8 ± 17.4 10^3/mm^3
RBC Mean ± SE [7, 8]: 7.50 ± 0.23 10^6/mm^3
WBC Mean ± SE [7, 8]: 8233.2 ± 83.7 Cell/mm^3
MDA [7, 9]: 2.33 ± 0.07***^b nmol/g
NP-SH [7, 9]: 4.21 ± 0.18***^b nmol/g
Total Protein [7, 9]: 92.72 ± 1.54***^b g/l
Alkaline phosphatase Mean ± SE [7, 10]: 321.28 ± 6.91 U/L
Bilirubin Mean ± SE [7, 10]: 0.75 ± 0.03 mg/dL
Cholesterol Mean ± SE [7, 10]: 134.8 ± 3.6 mg/dL
GGT Mean ± SE [7, 10]: 5.60 ± 0.17 U/L
Glucose level Mean ± SE [7, 10]: 143.85 ± 2.47***^b mg/dl
HDL Mean ± SE [7, 10]: 29.8 ± 0.9 mg/dL
LDH Mean ± SE [7, 10]: 184.92 ± 5.08***^b U/L
LDL Mean ± SE [7, 10]: 83.9 ± 3.3 mg/dL
SGOT(AST) Mean ± SE [7, 10]: 143.28 ± 2.88 U/L
SGPT(ALT) Mean ± SE [7, 10]: 50.48 ± 3.17 U/L
Triglycerides Mean ± SE [7, 10]: 105.1 ± 2.2 mg/dL
VLDL Mean ± SE [7, 10]: 21.0 ± 0.4 mg/dL
